Reference: patent publication US10288629B1, “Method of assessing growth hormone deficiency in humans by a macimorelin containing composition” (AEterna Zentaris, Inc., priority 2017, dated 2019)
Blank lines part the entries; values can stand above or below the compound they belong to.

Tests used:
[1] = design: species or system human; details: in vivo
GH level [2] = test: repeatability of the macimorelin GHST; assay type: in vivo, human; details: below or above cut-off point
Excerpt: To assess the repeatability of the macimorelin GHST, 33 subjects with a valid first macimorelin test (core study) underwent a second macimorelin test (repeatability study extension).

peak GH concentrations = test: peak GH response in the macimorelin GHST and ITT; assay type: in vivo, human; details: all AGHD likelihood groups A-D; N=139; FIG. 5
Procedure: Blood samples were collected before and 30, 45, 60, and 90 minutes after administration of macimorelin and before and 15, 30, 45, 60, 90 and 120 minutes after administration of insulin to the efficacy data set subjects and GH levels were determined for all samples.

GH level [3] = test: agreement of the Macimorelin GHST with the ITT for diagnosis of AGHD; assay type: in vivo, human; details: cut-off 2.8 ng/mL macimorelin, 5.1 ng/mL ITT, N = 139
Procedure: The study protocol allowed for a 5 minutes time window for each of said time points, meaning that a blood sample collected for example within 25 to 35 min after GH provocation agent administration was […] collected for the 30 min time point.

human GHS receptor = target: T1, human GHS receptor (Homo sapiens, UniProt Q92847); details: membrane preparations from human hypothalamus and pituitary gland; compared with ghrelin; cited from earlier work
T1 construct: membrane preparations containing the GHS-receptor derived from human hypothalamus and pituitary gland; from tissue; host or cells: human hypothalamus and pituitary gland membranes
T1 sequence (Q92847 whole entry): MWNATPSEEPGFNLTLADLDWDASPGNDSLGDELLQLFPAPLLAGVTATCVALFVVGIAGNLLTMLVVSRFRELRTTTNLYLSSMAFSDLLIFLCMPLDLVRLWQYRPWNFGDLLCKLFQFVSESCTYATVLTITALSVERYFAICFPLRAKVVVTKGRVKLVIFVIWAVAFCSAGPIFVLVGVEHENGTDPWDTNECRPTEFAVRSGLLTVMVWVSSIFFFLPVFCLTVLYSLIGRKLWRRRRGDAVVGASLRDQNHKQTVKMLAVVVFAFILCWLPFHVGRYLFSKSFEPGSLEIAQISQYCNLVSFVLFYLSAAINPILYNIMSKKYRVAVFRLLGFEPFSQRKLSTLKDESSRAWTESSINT

[4] = macimorelin sample: peak of 0-90 min
[5] = macimorelin sample: peak of 45 & 60 min
[6] = macimorelin sample: peak of 60 & 90 min

diarrhea ([1]; human): 1.9%
dizziness ([1]; human): 3.9%
dysgeusia ([1]; human): 4.5%
fatigue ([1]; human): 3.9%
feeling hot ([1]; human): 1.3%
headache ([1]; human): 3.9%
hunger ([1]; human): 3.2%
hyperhidrosis ([1]; human): 1.3%
nasopharyngitis ([1]; human): 1.3%
nausea ([1]; human): 3.2%
sinus bradycardia ([1]; human): 1.3%
upper respiratory tract infection ([1]; human): 1.9%
Compound: CC(C)(N)C(=O)N[C@H](Cc1c[nH]c2ccccc12)C(=O)N[C@H](Cc1c[nH]c2ccccc12)NC=O [Macimorelin, macimorelin]
result of second macimorelin test matching result of first test (GH level [2]; 33 subjects): 94%
subjects with reproducible test outcome (number) (GH level [2]; out of 33 subjects): 31
peak GH levels in the macimorelin GHST as compared to the ITT (peak GH concentrations): higher peak GH levels
Negative % agreement (GH level [3]; macimorelin sample: 30 min): 73.85%
Positive % agreement (GH level [3]; macimorelin sample: 30 min): 82.43%
Total % agreement (GH level [3]; macimorelin sample: 30 min): 78.42%
Negative % agreement (GH level [3]; macimorelin sample: 45 min): 86.15%
Positive % agreement (GH level [3]; macimorelin sample: 45 min): 78.38%
Total % agreement (GH level [3]; macimorelin sample: 45 min): 82.01%
Negative % agreement (GH level [3]; macimorelin sample: 60 min): 95.31%
Positive % agreement (GH level [3]; macimorelin sample: 60 min): 81.08%
Total % agreement (GH level [3]; macimorelin sample: 60 min): 87.68%
Negative % agreement (GH level [3]; macimorelin sample: 90 min): 84.62%
Positive % agreement (GH level [3]; macimorelin sample: 90 min): 86.49%
Total % agreement (GH level [3]; macimorelin sample: 90 min): 85.61%
Negative % agreement (GH level [3]; [4]): 95.38%
Positive % agreement (GH level [3]; [4]): 74.32%
Total % agreement (GH level [3]; [4]): 84.17%
Negative % agreement (GH level [3]; [5]): 95.38%
Positive % agreement (GH level [3]; [5]): 75.68%
Total % agreement (GH level [3]; [5]): 84.89%
Negative % agreement (GH level [3]; [6]): 95.38%
Positive % agreement (GH level [3]; [6]): 78.38%
Total % agreement (GH level [3]; [6]): 86.33%
Negative % agreement (GH level [3]; macimorelin sample: pre-dose): 13.85%
Positive % agreement (GH level [3]; macimorelin sample: pre-dose): 98.65%
Total % agreement (GH level [3]; macimorelin sample: pre-dose): 58.99%
binding potency to the human GHS receptor (human GHS receptor): comparable to that of its natural ligand, ghrelin

Compound: ITT: insulin tolerance test: intravenous administration of insulin to induce hypoglycaemia, which leads to GH release; comparator GHST [reference compound]
Any TEAE (likely or possible related), % of subjects [1]: 94.9%
Any TEAE (likely or possible related), Frequency (number of subjects) [1]: 149
Any TEAE (likely or possible related), N AEs [1]: 710
Any TEAE, % of subjects [1]: 96.2%
Any TEAE, N AEs (number of all AEs) [1]: 761
Any test emergent severe AE, % of subjects [1]: 7%
severe TEAE asthenia, number of subjects [1]: 4
severe TEAE hunger, number of subjects [1]: 3
severe TEAE hyperhidrosis, number of subjects [1]: 5
severe TEAE nervousness, number of subjects [1]: 2
severe TEAE somnolence, number of subjects [1]: 5
severe TEAE tremor, % of subjects [1]: 0.6%
severe TEAE tremor, number of subjects [1]: 1
